Laboratory results published in patent US20240092799A1, “MNK INHIBITORS” (Hepagene Therapeutics (HK) Limited, priority 2020, published 2024).

What was measured:
TMD-8 cell p-IF4E = assay: p-eIF4E Signaling Cellular Assay (CisBio HTRF) in TMD-8 cells; type: cell-based; conditions: Homo sapiens, TMD8, 40 min, 40 min treatment
Method: p-eIF4E Signaling Cellular Assay. Phosphorylated eIF4E is assayed using the CisBio p-Eif4E HTRF assay kit. Reagents and equipment used in the assay are listed below, followed by the protocol.
Cell medium: RPMI 1640+10% FBS+1*PS, TMD-8 were cultured as recommended and assayed in exponential growth phase. • a) Plate 30 μL of cells in 384 white assay plate in appropriate medium and proper cell density (20 k/well) based on Optimization at 37° C. under 5% CO2 atmosphere • b) Dispense 90 nL of compounds diluted in DMSO and treat for 40 min at 37° C. under 5% CO2 atmosphere • c) Remove cell supernatant by flicking the plate • d) Add 16 μL of supplemented lysis buffer (1×) for 30 minutes at RT under shaking • e) Add 4 μL of premixed antibody solutions prepared in the detection buffer. Cover the plate with a plate sealer. Incubate 0/N at RT • f) Read the fluorescence emission at 665 nm and 620 nm on Envision • g) Data analysis • (1) Ratio […] signal is calculated for each well • (2) % Inhibition is calculated as follow:
% inhibition=100−(Signalcmpd-SignalAve_PC)/(SignalAve_VC-SignalAve_PC)×100. • (3) Calculate IC50 and Plot effect-dose curve of cmpds:
Calculate IC50 by fitting % Inhibition values and log of compound concentrations to nonlinear regression (dose response−variable slope) with Graphpad 8.0.
Y=Bottom+(Top−Bottom)/(1+10^((Log IC50−X)*Hill Slope)) • X: log of Inhibitor concentration; Y: % Inhibition.

MNK2 = MNK2 (Homo sapiens (Human), UniProt Q9HBH9); assay: MNK Biochemical Enzymatic Assay (ADP-Glo), MNK2 binding assay
In short: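 Human MNK1 or MNK2 was preincubated with a 10-point, 1:3 serial dilution of compound for 15 min at 25 °C. Substrate was then added and the reaction ran 60 min at 25 °C. ADP formed was read by ADP-Glo luminescence, and IC50 came from non-linear regression.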

Sequence of MNK2 (Q9HBH9 whole entry): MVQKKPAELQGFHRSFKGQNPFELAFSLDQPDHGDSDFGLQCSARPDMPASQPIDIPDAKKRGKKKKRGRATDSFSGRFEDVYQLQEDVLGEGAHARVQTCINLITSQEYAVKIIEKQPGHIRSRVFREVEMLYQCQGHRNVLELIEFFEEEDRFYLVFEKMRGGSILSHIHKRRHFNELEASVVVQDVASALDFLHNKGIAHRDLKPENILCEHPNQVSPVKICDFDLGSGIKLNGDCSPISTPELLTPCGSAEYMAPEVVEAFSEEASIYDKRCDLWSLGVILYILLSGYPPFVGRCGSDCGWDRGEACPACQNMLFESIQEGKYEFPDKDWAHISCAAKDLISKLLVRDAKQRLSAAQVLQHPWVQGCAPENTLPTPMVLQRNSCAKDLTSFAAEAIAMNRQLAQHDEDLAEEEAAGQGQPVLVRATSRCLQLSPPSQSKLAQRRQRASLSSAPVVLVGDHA

| SMILES | IC50 (TMD-8 cell p-IF4E) | IC50 (MNK2) |
| --- | --- | --- |
| Cc1cc(Nc2cc(N[C@@H]3COC[C@H]3O)ncn2)[n+]([O-])c2c1C(=O)NC21CCCCC1 (relative stereo) [Compound XXIX-AE, 2′-((6-((trans-4-hydroxytetrahydrofuran-3-yl)amino)pyrimidin-4-yl)amino)-4′-methyl-5′-oxo-5′,6′-dihydrospiro[cyclohexane-1,7′-pyrrolo[3,4-b]pyridine] 1′-oxide] | 0.01 to 0.1 µM | 0.0001 to 0.01 µM |
| COc1c(N)ncnc1Nc1cc2c(s1)C(=O)NC21CCCCC1 [Compound X-C, 2′-((6-amino-5-methoxypyrimidin-4-yl)amino)spiro[cyclohexane-1,4′-thieno[2,3-c]pyrrol]-6′(5′H)-one] | 0.01 to 0.1 µM | 0.0001 to 0.01 µM |
| O=C1NC2(CCCCC2)c2cc(Nc3ncnc4[nH]cnc34)sc21 [Compound XVII, 2′-((9H-Purin-6-yl)amino)spiro[cyclohexane-1,4′-thieno[2,3-c]pyrrol]-6′(5′H)-one] | 0.1 to 1 µM | 0.0001 to 0.01 µM |
| O=C1NC2(CCCCC2)c2cc(Nc3ncnc4[nH]ccc34)sc21 [Compound XVII-A, 2′-((7H-pyrrolo[2,3-d]pyrimidin-4-yl)amino)spiro[cyclohexane-1,4′-thieno[2,3-c]pyrrol]-6′(5′H)-one] | 0.01 to 0.1 µM | 0.0001 to 0.01 µM |
| O=C1NC2(CCCCC2)c2cc(Nc3ncnc4[nH]ncc34)sc21 [Compound XVII-B, 2′-((1H-pyrazolo[3,4-d]pyrimidin-4-yl)amino)spiro[cyclohexane-1,4′-thieno[2,3-c]pyrrol]-6′(5′H)-one] | 0.1 to 1 µM | 0.0001 to 0.01 µM |
| Cc1cc2c(Nc3cc4c(s3)C(=O)NC43CCCCC3)ncnc2[nH]1 [Compound XVII-C, 2′-((6-methyl-7H-pyrrolo[2,3-d]pyrimidin-4-yl)amino)spiro[cyclohexane-1,4′-thieno[2,3-c]pyrrol]-6′(5′H)-one] | 0.01 to 0.1 µM | 0.0001 to 0.01 µM |
| O=C1NC2(CCCCC2)c2cc(Nc3cc(NC(=O)C4CCCC4)ncn3)sc21 [Compound XX-D, N-(6-((6′-Oxo-5′,6′-dihydrospiro[cyclohexane-1,4′-thieno[2,3-c]pyrrol]-2′-yl)amino)pyrimidin-4-yl)cyclopentanecarboxamide] | 0.1 to 1 µM | 0.0001 to 0.01 µM |
| O=C1NC2(CCCCC2)c2c1sc(Nc1cc(N[C@H]3CCOC3)ncn1)c2Cl [Compound XXI-A, (S)-3′-chloro-2′-((6-((tetrahydrofuran-3-yl)amino)pyrimidin-4-yl)amino)spiro[cyclohexane-1,4′-thieno[2,3-c]pyrrol]-6′(5′H)-one] | 0.01 to 0.1 µM | 0.0001 to 0.01 µM |
| O=C1NC2(CCCCC2)c2cc(Nc3cc(Nc4ccccn4)ncn3)sc21 [Compound XXIII-C, 2′-((6-(Pyridin-2-ylamino)pyrimidin-4-yl)amino)spiro[cyclohexane-1,4′-thieno[2,3-c]pyrrol]-6′(5′H)-one] | 0.01 to 0.1 µM | 0.0001 to 0.01 µM |
| O=C1NC2(CCCCC2)c2cc(Nc3cc(NCCO)ncn3)sc21 [Compound XXIII-J, 2′-((6-((2-Hydroxyethyl)amino)pyrimidin-4-yl)amino)spiro[cyclohexane-1,4′-thieno[2,3-c]pyrrol]-6′(5′H)-one] | 0.1 to 1 µM | 0.0001 to 0.01 µM |
| O=C1NC2(CCCCC2)c2cc(Nc3cc(NC4CCCC4)ncn3)sc21 [Compound XXIII-N, 2′-((6-(Cyclopentylamino)pyrimidin-4-yl)amino)spiro[cyclohexane-1,4′-thieno[2,3-c]pyrrol]-6′(5′H)-one] | 0.01 to 0.1 µM | 0.01 to 0.1 µM |
| Cn1ccc(Nc2cc(Nc3cc4c(s3)C(=O)NC43CCCCC3)ncn2)n1 [Compound XXIII-P, 2′-((6-((1-methyl-1H-pyrazol-3-yl)amino)pyrimidin-4-yl)amino)spiro[cyclohexane-1,4′-thieno[2,3-c]pyrrol]-6′(5′H)-one] | 0.01 to 0.1 µM | 0.0001 to 0.01 µM |
| CN1CCN(c2ccc(Nc3cc(Nc4cc5c(s4)C(=O)NC54CCCCC4)ncn3)nc2)CC1 [Compound XXIII-T, 2′-((6-((5-(4-methylpiperazin-1-yl)pyridin-2-yl)amino)pyrimidin-4-yl)amino)spiro[cyclohexane-1,4′-thieno[2,3-c]pyrrol]-6′(5′H)-one] | 0.01 to 0.1 µM | 0.0001 to 0.01 µM |
| O=C1NC2(CCCCC2)c2cc(Nc3cc(Nc4cc[nH]n4)ncn3)sc21 [Compound XXIII-U, 2′-((6-((1H-pyrazol-3-yl)amino)pyrimidin-4-yl)amino)spiro[cyclohexane-1,4′-thieno[2,3-c]pyrrol]-6′(5′H)-one] | 0.01 to 0.1 µM | 0.0001 to 0.01 µM |
| O=C1NC2(CCCCC2)c2cc(Nc3cc(NC4CCOC4)ncn3)sc21 (stereo not shown) [Compound XXIII-Y, 2′-((6-((tetrahydrofuran-3-yl)amino)pyrimidin-4-yl)amino)spiro[cyclohexane-1,4′-thieno[2,3-c]pyrrol]-6′(5′H)-one] | 0.01 to 0.1 µM | 0.0001 to 0.01 µM |
| O=C1NC2(CCCCC2)c2cc(Nc3cc(N[C@H]4CCCOC4)ncn3)sc21 [Compound XXIV-A, (S)-2′-((6-((tetrahydro-2H-pyran-3-yl)amino)pyrimidin-4-yl)amino)spiro[cyclohexane-1,4′-thieno[2,3-c]pyrrol]-6′(5′H)-one] | 0.1 to 1 µM | 0.0001 to 0.01 µM |
| O=C1NC2(CCCCC2)c2cc(Nc3ccnc(N[C@H]4CCOC4)c3)sc21 [Compound XXIV-B, (S)-2′-((2-((tetrahydrofuran-3-yl)amino)pyridin-4-yl)amino)spiro[cyclohexane-1,4′-thieno[2,3-c]pyrrol]-6′(5′H)-one] | 0.01 to 0.1 µM | 0.0001 to 0.01 µM |
| O=C1NC2(CCCCC2)c2cc(Nc3cc(N[C@H]4CCOC4)ncn3)sc21 [Compound XXIV-C, (S)-2′-((6-((tetrahydrofuran-3-yl)amino)pyrimidin-4-yl)amino)spiro[cyclohexane-1,4′-thieno[2,3-c]pyrrol]-6′(5′H)-one] | 0.01 to 0.1 µM | 0.0001 to 0.01 µM |
| CNC(=O)Nc1cc(Nc2cc3c(s2)C(=O)NC32CCCCC2)ncn1 [Compound XXIV-G, 1-methyl-3-(6-((6′-oxo-5′,6′-dihydrospiro[cyclohexane-1,4′-thieno[2,3-c]pyrrol]-2′-yl)amino)pyrimidin-4-yl)urea] | 0.1 to 1 µM | 0.0001 to 0.01 µM |
| O=C1NC2(CCCCC2)c2cc(Nc3cc(NCC4CCCC4)ncn3)sc21 [Compound XXIV-H, 2′-((6-((cyclopentylmethyl)amino)pyrimidin-4-yl)amino)spiro[cyclohexane-1,4′-thieno[2,3-c]pyrrol]-6′(5′H)-one] | 0.01 to 0.1 µM | 0.01 to 0.1 µM |
| O=C1NC2(CCCCC2)c2cc(Nc3cc(NC(=O)C4CCOC4)ncn3)sc21 (stereo not shown) [Compound XXIV-I, N-(6-((6′-oxo-5′,6′-dihydrospiro[cyclohexane-1,4′-thieno[2,3-c]pyrrol]-2′-yl)amino)pyrimidin-4-yl)tetrahydrofuran-3-carboxamide] | 0.1 to 1 µM | 0.0001 to 0.01 µM |
| Cn1cc(Nc2cc(Nc3cc4c(s3)C(=O)NC43CCCCC3)ncn2)cn1 [Compound XXIV-K, 2′-((6-((1-methyl-1H-pyrazol-4-yl)amino)pyrimidin-4-yl)amino)spiro[cyclohexane-1,4′-thieno[2,3-c]pyrrol]-6′(5′H)-one] | 0.1 to 1 µM | 0.0001 to 0.01 µM |
| Cc1cc(Nc2cc(N)ncn2)[n+]([O-])c2c1C(=O)NC21CCCCC1 [Compound XXIX, 2′-((6-Aminopyrimidin-4-yl)amino)-4′-methyl-5′-oxo-5′,6′-dihydrospiro [cyclohexane-1,7′-pyrrolo[3,4-b]pyridine] 1′-oxide] | 0.01 to 0.1 µM | 0.0001 to 0.01 µM |
| Cc1cc(Nc2cc(N[C@H]3CCOC3)ncn2)[n+]([O-])c2c1C(=O)NC21CCCCC1 [Compound XXIX-A, (S)-4′-methyl-5′-oxo-2′-((6-((tetrahydrofuran-3-yl)amino)pyrimidin-4-yl)amino)-5′,6′-dihydrospiro[cyclohexane-1,7′-pyrrolo[3,4-b]pyridine] 1′-oxide] | 0.0001 to 0.01 µM | 0.0001 to 0.01 µM |
| CC(=O)N(C)c1cccc(Nc2cc(Nc3cc(C)c4c([n+]3[O-])C3(CCCCC3)NC4=O)ncn2)n1 [Compound XXIX-AA, 4′-methyl-2′-((6-((6-(N-methylacetamido)pyridin-2-yl)amino)pyrimidin-4-yl)amino)-5′-oxo-5′,6′-dihydrospiro[cyclohexane-1,7′-pyrrolo[3,4-b]pyridine] 1′-oxide] | 0.0001 to 0.01 µM | 0.0001 to 0.01 µM |
| O=C1NC2(CCCCC2)c2nc(Nc3cc(N[C@H]4C[C@H](O)C4)ncn3)sc21 [Compound XXVIII-N, Trans-2′-((6-(((1r,3r)-3-hydroxycyclobutyl)amino)pyrimidin-4-yl)amino)spiro[cyclohexane-1,4′-pyrrolo[3,4-d]thiazol]-6′(5′H)-one] | – | 0.01 to 0.1 µM |
| O=C1NC2(CCCCC2)c2cc(Nc3ncnc4cccnc34)sc21 [Compound XXX, 2′-(pyrido[3,2-d]pyrimidin-4-ylamino)spiro[cyclohexane-1,4′-thieno[2,3-c]pyrrol]-6′(5′H)-one] | – | 0.01 to 0.1 µM |
